Data as given in US9585964B2, “Liver targeted conjugates” (President and Fellows of Harvard College, priority 2005, dated 2017).

System: hepatic injury induced by carbon tetrachloride (CCl4)
Experiment: mouse model of hepatic injury induced by carbon tetrachloride (CCl4); serum ALT and AST
Assay type: in vivo
Conditions: ICR mice; for increase in serum ALT compared to the vehicle control / increase in serum AST compared to the vehicle control: CCl4
Experimental: An indomethacin-simvastatin conjugate (Ind-S) and lovastatin alone were evaluated for possible hepatoprotective activity in a mouse model of hepatic injury induced by carbon tetrachloride (CCl4). Ind-S at 0.5, 1 and 5 μmol/kg and lovastatin at 30 mg/kg were each administered intraperitoneally 0.5 hour before and at 4 and 8 hours after CCl4 challenge. The degree of hepatic injury was manifested by increases in alanine aminotransferase (ALT) and aspartate aminotransferase (AST) levels relative to the vehicle-treated animals. A decrease of 30% or more in serum ALT or AST is considered significant protective activity. The test substances were provided at the indicated concentrations. […] The test substances were administered intraperitoneally at 0.5 hour before and 4 and 8 hours after CCl4 administration to test mice. The dosing volume was 5 mL/kg. Male ICR derived mice weighing 24±2 g and provided by BioLasco Taiwan, a Charles River Laboratories Technology Licensee, were used in the study Space allocation for animals was 29×18×13 cm for 10 mice. The animals were housed in APEC^R cages. All animals were maintained in a hygienic environment under controlled temperature (22-24° C.) and humidity (60%-70%) with 12 hours light/dark cycles for at least one week prior to use with free access to standard lab chow (LabDiet Rodent Diet, PMI Nutrition International, USA) and tap water. Seven groups of five ICR derived male mice (weighing 24±2 g) were used. Each animal was challenged with a single dose of carbon tetrachloride (CCl4, 0.1 mL/kg in 50% olive oil, PO). The test substances were administered intraperitoneally at 30 minutes before and 4, 8 hours after carbon tetrachloride challenge and the animals were sacrificed 24 hours later. Serum alanine aminotransferase (ALT) and aspartate aminotransferase (AST) levels were measured by optimized UV method using a HITACHI automatic analyzer (model 7050). Silymarin (300 mg/kg, PO) as the positive control agent was administered orally to test animals at the same time.

SMILES: COc1ccc2c(c1)c(CC(=O)OCCNC(=O)CCC(C)(C)C(=O)O[C@H]1C[C@@H](C)C=C3C=C[C@H](C)[C@H](CC[C@@H]4C[C@@H](O)CC(=O)O4)[C@H]31)c(C)n2C(=O)c1ccc(Cl)cc1 [Ind-S, 6(R)-[2-[8(S)-{4-(2-{2-[1-(4-Chloro-benzoyl)-5-methoxy-2-methyl-1H-indol-3-yl]-acetoxy}-ethylcarbamoyl)-2,2-dimethyl-butyryloxy}-2(S),6(R)-dimethyl-1,2,6,7,8,8,a(R)-hexahydronaphthyl-1(S)]ethyl]-4(R)-hydroxy-3,4,5,6-tetrahydro-2H-Pyran-2-one]
- reduction in serum ALT level relative to the vehicle-treated group (5 μmol/kg IP, 0.5 h before and 4 and 8 h after CCl4, non-significant): 21%
- reduction of AST activity relative to the vehicle-treated group (5 μmol/kg IP, 0.5 h before and 4 and 8 h after CCl4, serum at 24 h): 34%

SMILES: CC[C@H](C)C(=O)O[C@H]1C[C@@H](C)C=C2C=C[C@H](C)[C@H](CC[C@@H]3C[C@@H](O)CC(=O)O3)[C@H]21 [Lovastatin]
- increase in serum ALT compared to the vehicle control (30 mg/kg IP): 17%
- increase in serum AST compared to the vehicle control (30 mg/kg IP): 38%

SMILES: COc1ccc2c(c1)c(CC(=O)O)c(C)n2C(=O)c1ccc(Cl)cc1 [indomethacin]
- increase in serum ALT compared to the vehicle control (5 μmol/kg IP): 39%
- increase in serum AST compared to the vehicle control (5 μmol/kg IP): 73%
